Measurements from patent US6609014B1, “Use of PDT to inhibit intimal hyperplasia” (QLT Inc., priority 1999, dated 2003).
“And” between values parts separate entries of the source, which are not always exact repeats. Equal values may be shown once.

Legend:
[1] = tested on: intimal hyperplasia in the vein of AV fistulae between the carotid artery and the jugular vein; experiment: Three month efficacy study: PDT of bilateral AV fistulae, morphometric analysis; assay type: in vivo, Domestic swine; design: key to PDT-treated fistula thrombosed (T): T = thrombosed
Experimental: A porous balloon catheter was introduced into the lumen of veins to deliver either 2 mL of BPD-MA (diluted in 5% dextrose in water) or 5% dextrose in water (control), at a delivery pressure of 2 mm Hg. Two minutes later, the photosensitizer (or dextrose) was rinsed out with heparinized saline before light exposure.
The adventitia of the vein was exposed to the operating room (OR) lamp light for 40 minutes (a combination of incandescent bulbs and fluorescence tubes—approximately 1 J/cm^2).
Measurements and observations were made by morphometric analysis of cross-sections of fistulae stained with Verhoeff's elastic to assess the integrity of the vessel wall and also clearly demarcate the internal elastic lamina (IEL) for the measurement of IH. Areas within the lumen and those circumscribed by the internal elastic lamina (IEL) and the external elastic lamina (EEL) were measured directly using the Optimas (Optimas Corporation, Bothell, Wash., USA) program. The areas of the intima and the media were calculated by subtraction: intimal area equals the […], and medial area equals EEL area minus IEL area.
A three month study was conducted with bilateral end-to side AV fistulae between the carotid artery and the jugular vein created in 11 pigs. One fistula was treated with 0.15 mg/2 mL BPD-MA and 1 J/cm^2 OR lamp light delivered over 40 min; the control fistula received 5% Dextrose and light. Animals were sacrificed 3 months after PDT. The fistulae were surgically excised and processed for histology and morphometric analysis as described previously. Only 27% of the PDT treated and 45% of the control fistulae were patent by 3 months. Occlusion appeared to be due to both early thrombosis, possibly related to the surgical procedure or late thrombosis due to extensive IH and lumen narrowing.
There were three animals for which patent PDT-treated and control fistulae could be recovered. The percent of the lumen compromised by IH (% LCIH=[…]) was calculated for the first two complete blocks from the tip of the anastamosis for these samples.

[2] = tested on: endothelial lining of the vein lumen; experiment: von Willebrand factor immunostaining of AV fistula veins 48 hours after PDT; assay type: in vivo, Domestic swine; settings: low-dose PDT
From the text: In Example 4, the cell content of the vein wall was also examined using immunohistochemical techniques to detect SMCs (mouse anti-human ax-smooth muscle actin, clone 1A4 (Dako, Mississauga, Canada)), macrophages (mouse monoclonal anti-human monocyte/macrophage, clone MAC 387 (Serotec Inc.), T cells (Rabbit anti-human CD3 with Neo marker), and endothelial cells (rabbit polyclonal anti-human von Willebrand Factor (Dako, Mississauga, Canada)). SMCs were counted using the Optimas image analysis program and macrophages were counted manually using Image Pro Plus 3 (Media Cybernetics, Silver Spring, Md., USA).
For the purposes of determining the early cellular effects of PDT on the vein, bilateral AV fistulae were created in six pigs and treated sides were given 0.15 mg BPD-MA (0.15 mg/2 mL) and 40 minutes OR light. After 48 hours these pigs were sacrificed and the fistulae were recovered and processed for histological evaluation. This is not enough time for IH to have developed, but the cellular activation which leads to IH may be detectable. […] Immunocytochemistry for the proliferating cell nuclear antigen (PCNA) was used to assess cell proliferation in the tissue (Table 3).
Immunocytochemical staining for von Willebrand factor was performed to characterize the effects of PDT on the endothelial lining of the vein lumen. […]

[3] = 0.15 mg VERTEPORFIN/2 mL, 1 J/cm^2 OR lamp light over 40 min, three months, individual pigs
[4] = 0.15 mg VERTEPORFIN, three months, group mean
[5] = 0.15 mg VERTEPORFIN, three months, group mean (n=3)
[6] = 0.15 mg VERTEPORFIN, three months, individual pigs
[7] = 0.15 mg VERTEPORFIN, three months, individual pigs (FIG. 9: percent medial hyperplasia)
[8] = 0.15 mg/2 mL BPD-MA, three months

With “benzoporphyrin derivative monoacid ring A [BPD-MA]” the “Percent Lumen Compromised by Intimal Hyperplasia, PDT, Block #2” value [1, 3] was 2% and 32.3% and 41.7% and 13.7% and 46.4%, the “Percent Lumen Compromised by Intimal Hyperplasia, PDT, PDT (Block#1)” value [1, 3] was 3.1% and 30.2% and 17.3% and the “Medial Hyperplasia, PDT, Block#1, Mean” value [1, 4] was 21.3. For the same substance, the “Medial Hyperplasia, PDT, Block#2, Mean” value [1, 4] was 14.9, the “Percent Lumen Compromised by Intimal Hyperplasia, PDT, Block #1, Mean” value [1, 4] was 16.9% and the “Percent Lumen Compromised by Intimal Hyperplasia, PDT, Block #2, Mean” value [1, 4] was 26.9%. The “Percent Lumen Compromised by Intimal Hyperplasia, Control-PDT, Block #1, Mean” value [1, 5] was 16.7%, the “Percent Lumen Compromised by Intimal Hyperplasia, Control-PDT, Block #2, Mean” value [1, 5] was 8.5% and the “PDT-treated fistula thrombosed (T)” value [1, 6] was “T”. The “Percent Lumen Compromised by Intimal Hyperplasia, Control-PDT, Block #1” value [1, 6] was −0.4% and 18.8% and 31.8%, the “Percent Lumen Compromised by Intimal Hyperplasia, Control-PDT, Block #2” value [1, 6] was 17.6% and 14.5% and −6.6% and the “Medial Hyperplasia, PDT, Block#1” value [1, 7] was 8.4 and 38.1 and 17.3. The “Medial Hyperplasia, PDT, Block#2” value [1, 7] was 8.1 and 27.5 and 9.2, the “PDT treated fistulae patent by 3 months” value ([1]; 0.15 mg/2 mL BPD-MA, 1 J/cm^2 OR lamp light over 40 min, 11 pigs, control 45%) was 27% and the “Relative reduction of intimal hyperplasia, block 1” value [1, 8] was 46%. The “Relative reduction of intimal hyperplasia, block 2” value [1, 8] was 27%, the “PDT effect on the media of the veins” value ([1]; after 3 months) was “little PDT effect” and the “IH in block of tissue immediately adjacent to the anastamosis” value ([1]; three animals with both fistulae patent, three months) was “marked decrease in IH”. For the same substance, the “Damage to endothelial cell lining of treated veins” value [2] was “did not appear to damage the endothelial cell lining”.
